Where a name gives a salt, the structure may show the parent alone. Read-outs that look alike come from different tables or passages of the source.

From patent US20220251116A1, “ALKYLBORONIC ACIDS AS ARGINASE INHIBITORS” (Guangdong Newopp Biopharmaceuticals Co., Ltd., priority 2019, published 2022) come the findings set out here.

Test [1] deals with T1, recombinant human arginase 1 (Homo sapiens, UniProt P05089).
T1 sequence (P05089 1-322): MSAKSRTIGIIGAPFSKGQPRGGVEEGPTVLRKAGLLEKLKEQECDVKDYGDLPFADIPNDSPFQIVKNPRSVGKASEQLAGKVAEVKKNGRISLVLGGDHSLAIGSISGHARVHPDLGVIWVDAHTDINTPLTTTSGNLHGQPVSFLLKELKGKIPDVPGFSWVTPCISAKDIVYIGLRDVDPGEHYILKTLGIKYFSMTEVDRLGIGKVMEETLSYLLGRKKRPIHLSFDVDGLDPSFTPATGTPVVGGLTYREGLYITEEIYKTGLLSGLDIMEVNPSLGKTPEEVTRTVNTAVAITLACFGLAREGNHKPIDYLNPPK
Put plainly: Arginase inhibitory activity test, enzymatic assay based on urea measurement (Arg 1).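 Further: enzyme incubated with L-arginine substrate and compound at 37 °C for 120 min, urea product detected colorimetrically by absorbance at 450 nm, background from wells lacking enzyme.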

Test [2] addresses T2, recombinant human arginase 2 (Homo sapiens, UniProt P78540).
T2 sequence (P78540 23-354): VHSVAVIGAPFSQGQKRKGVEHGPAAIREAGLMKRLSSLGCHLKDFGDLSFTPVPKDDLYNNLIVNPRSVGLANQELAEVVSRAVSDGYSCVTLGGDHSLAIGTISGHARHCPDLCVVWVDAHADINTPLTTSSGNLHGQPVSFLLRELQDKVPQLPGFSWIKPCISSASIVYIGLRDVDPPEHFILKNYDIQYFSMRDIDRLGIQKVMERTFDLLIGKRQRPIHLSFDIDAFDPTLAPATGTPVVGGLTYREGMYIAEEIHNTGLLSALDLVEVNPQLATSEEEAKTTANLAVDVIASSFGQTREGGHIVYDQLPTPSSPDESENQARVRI
The experiment in a line: Arginase inhibitory activity test, enzymatic assay based on urea measurement (Arg 2). It is filed as biochemical. To be noted: 37° C. for 120 min, urea detection, read-out: Arg 2 enzymatic potency. The source says:
Urea was used as the standard.

As for `N[C@@]1(C(=O)O)CN(S(N)(=O)=O)C[C@@H]1CCCB(O)O` (racemic) [Example 1, (rac)trans-3-amino-4-(3-boronopropyl)-1-sulfamoylpyrrolidine-3-carboxylic acid, (1:1) 2,2,2-trifluoroacetic acid salt], the IC50 in test [1] was less than 100 nM; in test [2] it was 100 to 1000 nM.
Take `Nc1c(N2C[C@H](CCCB(O)O)[C@](N)(C(=O)O)C2)c(=O)c1=O` (racemic) [Example 3, (rac)trans-3-amino-1-(2-amino-3,4-dioxocyclobut-1-en-1-yl)-4-(3-boronopropyl)pyrrolidine-3-carboxylic acid, (1:1) 2,2,2-trifluoroacetic acid salt]: the IC50 in test [1] and in test [2] was 100 to 1000 nM each time.
With `N[C@@]1(C(=O)O)CN(S(=O)(=O)Nc2ccccn2)C[C@@H]1CCCB(O)O` (racemic) [Example 4, (rac)trans-3-amino-4-(3-boronopropyl)-1-(N-(pyridin-2-yl)sulfamoyl)pyrrolidine-3-carboxylic acid compound with 2,2,2-trifluoroacetic acid (1:2)], the IC50 in test [1] and in test [2] was 100 to 1000 nM throughout.
Take `NCCNS(=O)(=O)N1C[C@H](CCCB(O)O)[C@](N)(C(=O)O)C1` (racemic) [Example 5, (rac)trans-3-amino-1-(N-(2-aminoethyl)sulfamoyl)-4-(3-boronopropyl)pyrrolidine-3-carboxylic acid compound with 2,2,2-trifluoroacetic acid (1:2)]: the IC50 in test [1] and in test [2] was less than 100 nM in each case.
Regarding `N[C@@]1(C(=O)O)CN(S(=O)(=O)Nc2cc[nH]n2)C[C@@H]1CCCB(O)O` (racemic) [Example 6, (rac)trans-1-(N-(1H-pyrazol-3-yl)sulfamoyl)-3-amino-4-(3-boronopropyl)pyrrolidine-3-carboxylic acid, (1:2) 2,2,2-trifluoroacetic acid salt], the IC50 in test [1] and in test [2] was 100 to 1000 nM in each case.
Turning to `CC(C)(N)CNS(=O)(=O)N1C[C@H](CCCB(O)O)[C@](N)(C(=O)O)C1` (racemic) [Example 25, (rac)-trans-3-amino-1-(N-(2-amino-2-methylpropyl)sulfamoyl)-4-(3-boronopropyl)pyrrolidine-3-carboxylic acid, (1:2) 2,2,2-trifluoroacetic acid salt], the IC50 in test [1] and in test [2] was less than 100 nM throughout.
Take `N[C@@]1(C(=O)O)CN(S(=O)(=O)N(CC2CC2)[C@@H]2CCCNC2)C[C@@H]1CCCB(O)O` [Example 73, (3R,4S)-3-amino-4-(3-boronopropyl)-1-(N-(cyclopropylmethyl)-N-((R)-piperidin-3-yl)sulfamoyl)pyrrolidine-3-carboxylic acid, 2,2,2-trifluoroacetic acid salt (1:2)]: the IC50 in test [1] was less than 100 nM.
The same measure, in the same setting: the value for `N[C@@]1(C(=O)O)CN(S(=O)(=O)N(CC2CC2)C2CCNCC2)C[C@@H]1CCCB(O)O` [Example 74, (3R,4S)-3-amino-4-(3-boronopropyl)-1-(N-(cyclopropylmethyl)-N-(piperidin-4-yl)sulfamoyl)pyrrolidine-3-carboxylic acid, 2,2,2-trifluoroacetic acid salt (1:2)] was less than 100 nM.
Still for that read-out and setting: the value for `CCN(C1CNC1)S(=O)(=O)N1C[C@H](CCCB2O[C@H]3C[C@H]4C[C@H](C4(C)C)[C@@]3(C)O2)[C@](N)(C(=O)O)C1` [Example 75, (3R,4S)-3-amino-1-(N-(azetidin-3-yl)-N-ethylsulfamoyl)-4-(3-((3aR,4R,6R,7aS)-3a,5,5-trimethylhexahydro-4,6-methanobenzo[d][1,3,2]dioxaborol-2-yl)propyl)pyrrolidine-3-carboxylic acid] was less than 100 nM.
Turning to “(rac)trans-3-amino-1-(N-((S)-2-aminopropyl)sulfamoyl)-4-(3-boronopropyl)pyrrolidine-3-carboxylic acid (diastereomers), 2,2,2-trifluoroacetic acid salt (1:2) [Example 18]”, the IC50 in test [1] (read-out: Arg 1 enzymatic potency, recombinant human arginase 1, 37° C. for 120 min, urea detection) was in the range of 100 to 1000 nM.
